# Results as given in US20080293090A1, “AUTOMATED SEMI-SOLID MATRIX ASSAY AND LIQUID HANDLER APPARATUS FOR THE SAME” (AVENTIS PHARMACEUTICALS INC., priority 2001, published 2008).
# Structures can show the parent of a compound that is named as a salt.
# Legend:
# Type in all cases: cell-based
# [1] = tested on: tumor cells; assay: Soft agar assay, hand-pipetted 24-well plates, Calcein AM stained method
# Method: (§1) 25 μL of 10 μM calcein AM (in HBSS) is added to each well and allowed to incubate at 37 deg. C. for at least one hour. […] The fluorescence for calcein AM (after cleavage in live cells) is excitation=485+20 nm and emission=530+20 nm. For analysis, the data provided by the CytoFluor™ are analyzed in EXCEL™. The DMSO control wells are averaged and the standard deviation determined. Each compound well is then divided by the control average×100 for % control. The triplicate wells are averaged and the standard deviation determined. There is some background fluorescence and the colonies treated after formation are not eliminated by the single two-week treatment. The background can be subtracted from each well. Statistical programs such as PRISM could also be used for the graphing and IC50 determination. […] As a comparison, the same compounds were tested in the traditional hand-pipetted, 24-well plates, visually counted method. The only difference was that the soft agar assay used a 500 μL agarose layer in the 24-well plate and 75 uL/layer in the 96-well system, using the Sigma agarose. The two methods produced similar results, i.e. IC50s for the compounds, see Table 4.
# [2] = tested on: tumor cells; assay: Automated soft agar assay, 96-well plates, Calcein AM stained method; conditions: read-out: IC50s (μM) with Flavopiridol 96-well
# Method: as §1, with “It was determined that when plating with the test compound, the individual components, i.e., agarose, cells and compound, were more evenly distributed if premixed in a separate plate before being transferred to the 96-well plate. The test compounds were made 10× in RPMI GM, which was diluted to a 1× compound concentration in the mixing plate. […] Satisfactory results were obtained with the following combinations: 25” for “25”
# [3] = tested on: tumor cells; assay: Traditional soft agar assay, 24-well tray, visual counting of colonies; conditions: for IC50: read-out: IC50s Determined from Colony Counting; for Average # of colonies: 24-well tray
# Method: As a comparison, the same compounds were tested in the traditional hand-pipetted, 24-well plates, visually counted method. The only difference was that the soft agar assay used a 500 μL agarose layer in the 24-well plate and 75 uL/layer in the 96-well system, using the Sigma agarose. The 24-well plates were also counted visually, Table 5, and the IC50s determined, Table 6.
# [4] = tested on: Colo 205; assay: Soft agar assay, flavopiridol on already formed one week colonies; conditions: Homo sapiens, 168 h, added to colonies formed after 7 days of incubation, read-out: Flavopiridol IC50 (uM) on Formed Colonies, Average ± Standard Error
# Method: (§2) 25 μL of 10 μM calcein AM (in HBSS) is added to each well and allowed to incubate at 37 deg. C. for at least one hour. The plate is then read in a Cytofluor™ 4000 (3 counts/well) with a gain of 40. The fluorescence for calcein AM (after cleavage in live cells) is excitation=485+20 nm and emission=530+20 nm.
# (§3) For analysis, the data provided by the CytoFluor™ are analyzed in EXCEL™. The DMSO control wells are averaged and the standard deviation determined. Each compound well is then divided by the control average×100 for % control. The triplicate wells are averaged and the standard deviation determined. […] The background can be subtracted from each well. Statistical programs such as PRISM could also be used for the graphing and IC50 determination.
# (§4) Flavopiridol is added to colonies formed after 7 days of incubation at 37 deg.
# [5] = tested on: MDA-MB435; assay: as above; conditions: Homo sapiens, MDA-MB-435, 168 h, added to colonies formed after 7 days of incubation, read-out: Flavopiridol IC50 (uM) on Formed Colonies, Average ± Standard Error
# Method: as §2, §3, §4
# [6] = tested on: HL-60; assay: as above; conditions: Homo sapiens, 168 h, added to colonies formed after 7 days of incubation, read-out: Flavopiridol IC50 (uM) on Formed Colonies, Average ± Standard Error
# Method: as §2
# (§5) For analysis, the data provided by the CytoFluor™ are analyzed in EXCEL™. The DMSO control wells are averaged and the standard deviation determined. Each compound well is then divided by the control average×100 for % control. The triplicate wells are averaged and the standard deviation determined. There is some background fluorescence and the colonies treated after formation are not eliminated by the single two-week treatment. The background can be subtracted from each well. Statistical programs such as PRISM could also be used for the graphing and IC50 determination.
# (§6) Table 7. provides the IC50 in micromolar values obtained using flavopiridol on already formed colonies of a number of different cell lines (one week colonies). Flavopiridol is added to colonies formed after 7 days of incubation at […]. This method of adding compounds to already formed colonies may be more predictive for the compound's effectiveness against a tumor in vivo.
# [7] = tested on: NCI-H460; assay: as above; conditions: Homo sapiens, 168 h, added to colonies formed after 7 days of incubation, read-out: Flavopiridol IC50 (uM) on Formed Colonies, Average ± Standard Error
# Method: as §2, §5, §6
# [8] = tested on: PC-3; assay: as above; conditions: Homo sapiens, 168 h, added to colonies formed after 7 days of incubation, read-out: Flavopiridol IC50 (uM) on Formed Colonies, Average ± Standard Error
# Method: as §2, §5, §6
# [9] = flavopiridol added immediately after plating
smiles,measurement,setting,value
"CN1CC[C@H](c2c(O)cc(O)c3c(=O)cc(-c4ccccc4Cl)oc23)[C@H](O)C1 [Flavopiridol, (cis-(−)-5,7-Dihydroxy-2-(2-chlorophenyl)-8-[4-(3-hydroxy-1-methyl)piperidinyl]-4H-1-benzopyran-4-one hydrochloride dihydrate]",IC50,[1]; cells plated with flavopiridol,0.08 µM
same,IC50,[1]; [9],0.4 µM
same,IC50,"[2]; 168 h, flavopiridol added to one week colonies",1 µM
same,IC50,[2]; cells plated with flavopiridol,0.15 µM
same,IC50,[2]; [9],0.6 µM
same,IC50,"[3]; added immediately after plating, 24-well, visual counting",400 nM
same,IC50s Determined from Colony Counting,"[3]; added to 1-week colonies, 24-well, visual counting",did not reach 50% control.
same,Average # of colonies,"[3]; flavopiridol added immediately after plating, 0.00032 μM",30
same,Average # of colonies,"[3]; flavopiridol added immediately after plating, 0.0016 μM",30
same,Average # of colonies,"[3]; flavopiridol added immediately after plating, 0.008 μM",32
same,Average # of colonies,"[3]; flavopiridol added immediately after plating, 0.04 μM",26
same,Average # of colonies,"[3]; flavopiridol added immediately after plating, 0.2 μM",27
same,Average # of colonies,"[3]; flavopiridol added immediately after plating, 1 μM",0
same,Average # of colonies,"[3]; flavopiridol added immediately after plating, 5 μM",0
same,Average # of colonies,"[3]; flavopiridol added to one-week colonies, 0.0032 μM",34.0
same,Average # of colonies,"[3]; flavopiridol added to one-week colonies, 0.016 μM",35.0
same,Average # of colonies,"[3]; flavopiridol added to one-week colonies, 0.08 μM",32.0
same,Average # of colonies,"[3]; flavopiridol added to one-week colonies, 0.4 μM",33
same,Average # of colonies,"[3]; flavopiridol added to one-week colonies, 2 μM",25
same,Average # of colonies,"[3]; flavopiridol added to one-week colonies, 10 μM",32
same,Average # of colonies,"[3]; flavopiridol added to one-week colonies, 50 μM",20
same,IC50,"[3]; plated with Flavo, 24-well, visual counting",90 nM
same,Average # of colonies,"[3]; plated with flavopiridol, 0.00032 μM",27
same,Average # of colonies,"[3]; plated with flavopiridol, 0.0016 μM",25
same,Average # of colonies,"[3]; plated with flavopiridol, 0.008 μM",22
same,Average # of colonies,"[3]; plated with flavopiridol, 0.04 μM",25
same,Average # of colonies,"[3]; plated with flavopiridol, 0.2 μM",0
same,Average # of colonies,"[3]; plated with flavopiridol, 1 μM",0
same,Average # of colonies,"[3]; plated with flavopiridol, 5 μM",0
same,IC50,[4],1.4 ± 0.06 µM
same,IC50,[5],2.2 ± 0.09 µM
same,IC50,[6],1.6 ± 0.15 µM
same,IC50,[7],2.4 ± 0.1 µM
same,IC50,[8],1.7 ± 0.04 µM
